Test results from the supplement of paper PMC8149375.

What was measured:
Conditions in all cases: treatment: drug + dasatinib (fixed dose, not stated); 5 days
769-P [1] = assay: GI50 of drug in presence of dasatinib; higher = less potent
Experimental: (§1)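 Primary HTS combination arm: 8 RCC cell lines treated with 8 doses (up to 10 uM) of each library drug plus a fixed dose of dasatinib (dose not stated) for 5 days; viability read by CellTiter-Glo and normalised to DMSO. GI50 was fitted with XLfit, AUC is the area under the dose-response curve, and minimum viability is the lowest fraction of DMSO viability across doses.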

A498 [2] = assay: as above
Experimental: as §1

SN12C [3] = assay: as above
Experimental: as §1

TK-10 [4] = assay: as above
Experimental: as §1

ACHN [5] = assay: as above
Experimental: as §1

CAKI-1 [6] = assay: as above
Experimental: as §1

UO-31 [7] = assay: as above
Experimental: as §1

786-O [8] = assay: as above
Experimental: as §1

769-P [9] = assay: AUC of dose-response viability curve, drug + dasatinib, normalised to DMSO (arbitrary (AUC of normalised viability)); higher = less growth inhibition
Experimental: as §1

A498 [10] = assay: as above
Experimental: as §1

SN12C [11] = assay: as above
Experimental: as §1

TK-10 [12] = assay: as above
Experimental: as §1

ACHN [13] = assay: as above
Experimental: as §1

CAKI-1 [14] = assay: as above
Experimental: as §1

UO-31 [15] = assay: as above
Experimental: as §1

786-O [16] = assay: as above
Experimental: as §1

769-P [17] = assay: minimum viability across doses, drug + dasatinib, relative to DMSO (fraction); higher = less growth inhibition
Experimental: as §1

A498 [18] = assay: as above
Experimental: as §1

SN12C [19] = assay: as above
Experimental: as §1

TK-10 [20] = assay: as above
Experimental: as §1

ACHN [21] = assay: as above
Experimental: as §1

CAKI-1 [22] = assay: as above
Experimental: as §1

UO-31 [23] = assay: as above
Experimental: as §1

786-O [24] = assay: as above
Experimental: as §1

| Structure (SMILES) | GI50 of drug (769-P [1]) | GI50 of drug (A498 [2]) | GI50 of drug (SN12C [3]) | GI50 of drug (TK-10 [4]) | GI50 of drug (ACHN [5]) | GI50 of drug (CAKI-1 [6]) | GI50 of drug (UO-31 [7]) | GI50 of drug (786-O [8]) | AUC of dose-response viability curve (769-P [9]) | AUC of dose-response viability curve (A498 [10]) | AUC of dose-response viability curve (SN12C [11]) | AUC of dose-response viability curve (TK-10 [12]) | AUC of dose-response viability curve (ACHN [13]) | AUC of dose-response viability curve (CAKI-1 [14]) | AUC of dose-response viability curve (UO-31 [15]) | AUC of dose-response viability curve (786-O [16]) | minimum viability across doses (769-P [17]) | minimum viability across doses (A498 [18]) | minimum viability across doses (SN12C [19]) | minimum viability across doses (TK-10 [20]) | minimum viability across doses (ACHN [21]) | minimum viability across doses (CAKI-1 [22]) | minimum viability across doses (UO-31 [23]) | minimum viability across doses (786-O [24]) |
| --- | --- | --- | --- | --- | --- | --- | --- | --- | --- | --- | --- | --- | --- | --- | --- | --- | --- | --- | --- | --- | --- | --- | --- | --- |
| CC(O)C(=O)O.CC(O)C(=O)O.CN1CCN(c2ccc3nc(-c4c(N)c5c(F)cccc5[nH]c4=O)[nH]c3c2)CC1 [Dovitinib Dilactic acid (TKI258 Dilactic acid)] + Cc1nc(Nc2ncc(C(=O)Nc3c(C)cccc3Cl)s2)cc(N2CCN(CCO)CC2)n1 [dasatinib] | 1750 nM | 4270 nM | 352 nM | 1070 nM | 11.7 nM | 98.2 nM | 1320 nM | 3480 nM | 2.2 | 3.14 | 1.8 | 2.12 | 0.989 | 1.45 | 3.44 | 2.64 | 0.0213 | 0.303 | 0.0502 | 0.289 | 0.0981 | 0.0435 | 0.124 | 0.139 |
| Cc1cnc(Nc2ccc(OCCN3CCCC3)cc2)nc1Nc1cccc(S(=O)(=O)NC(C)(C)C)c1 + Cc1nc(Nc2ncc(C(=O)Nc3c(C)cccc3Cl)s2)cc(N2CCN(CCO)CC2)n1 [dasatinib] | 1340 nM | 3500 nM | 949 nM | 357 nM | 136 nM | 376 nM | 913 nM | 492 nM | 2.06 | 3.11 | 1.97 | 1.82 | 1.25 | 1.66 | 3.1 | 1.73 | 0.0211 | 0.0831 | 0.00825 | 0.00313 | 0.00238 | 0.00319 | 0.00873 | 0.0103 |
| CC[C@H](CO)Nc1nc(NCc2ccccc2)c2ncn(C(C)C)c2n1 [Roscovitine (Seliciclib, CYC202)] + Cc1nc(Nc2ncc(C(=O)Nc3c(C)cccc3Cl)s2)cc(N2CCN(CCO)CC2)n1 [dasatinib] | > 10000 nM | > 10000 nM | > 10000 nM | > 10000 nM | 3630 nM | > 10000 nM | 9070 nM | 4900 nM | 2.52 | 3.29 | 2.52 | 2.74 | 2.15 | 2.54 | 3.04 | 2.32 | 0.595 | 0.847 | 0.669 | 0.675 | 0.266 | 0.514 | 0.272 | 0.259 |
| CN(C)Cc1cccc(N/C(=C2\C(=O)Nc3cc(C(=O)N(C)C)ccc32)c2ccccc2)c1 + Cc1nc(Nc2ncc(C(=O)Nc3c(C)cccc3Cl)s2)cc(N2CCN(CCO)CC2)n1 [dasatinib] | > 10000 nM | 9880 nM | 2480 nM | 5620 nM | 631 nM | 1120 nM | 7140 nM | 3740 nM | 2.43 | 3.5 | 2.35 | 2.49 | 1.61 | 2.09 | 3.62 | 2.19 | 0.561 | 0.473 | 0.229 | 0.386 | 0.0657 | 0.0645 | 0.0229 | 0.348 |
| Cc1ccc(C(=O)Nc2cccc(C(F)(F)F)c2)cc1Nc1nc(-c2cccnc2)nc2c1cnn2C [NVP-BHG712] + Cc1nc(Nc2ncc(C(=O)Nc3c(C)cccc3Cl)s2)cc(N2CCN(CCO)CC2)n1 [dasatinib] | 1640 nM | 4420 nM | 6860 nM | 1070 nM | 511 nM | 506 nM | 3110 nM | 491 nM | 2.16 | 3.17 | 2.37 | 2.1 | 1.8 | 1.87 | 3.61 | 1.66 | 0.0398 | 0.0233 | 0.0536 | 0.0343 | 0.126 | 0.026 | 0.00794 | 0.00229 |
| Cl.Cl.Fc1cc(-c2cccc3ncc(-c4cnn(C5CCNCC5)c4)nc23)cc(F)c1CN1CCOCC1 [NVP-BSK805] + Cc1nc(Nc2ncc(C(=O)Nc3c(C)cccc3Cl)s2)cc(N2CCN(CCO)CC2)n1 [dasatinib] | 3940 nM | 5130 nM | 2430 nM | 1420 nM | 380 nM | 962 nM | 2940 nM | 44.1 nM | 2.29 | 3.09 | 2.15 | 2.08 | 1.64 | 1.9 | 3.35 | 1.85 | 0.37 | 0.0371 | 0.127 | 0.108 | 0.0139 | 0.0163 | 0.0214 | 0.00448 |
| CCCCCCCCCCCCc1ccc(S(=O)(=O)Nc2nncs2)cc1 [PHT-427] + Cc1nc(Nc2ncc(C(=O)Nc3c(C)cccc3Cl)s2)cc(N2CCN(CCO)CC2)n1 [dasatinib] | > 10000 nM | > 10000 nM | > 10000 nM | > 10000 nM | > 10000 nM | > 10000 nM | > 10000 nM | 4870 nM | 2.43 | 3.58 | 2.53 | 2.53 | 1.87 | 2.43 | 4.28 | 1.91 | 0.631 | 0.912 | 0.691 | 0.67 | 0.47 | 0.656 | 1.13 | 0.455 |
